Measurements published in patent US5441974A, “Phenyl amidines lactones useful as platelet aggregation inhibitors” (G. D. Searle & Co., priority 1994, dated 1995).
Structures can show the parent of a compound that is named as a salt.

Test system: platelet aggregation
Experiment: In-Vitro Platelet Aggregation in PRP (ADP-induced)
Type: cell-based
Settings: dog platelet-rich plasma, ADP 50 μm final; for IC50: 1 min preincubation at 37° C.; for % Inhibition: Test Concentration 1 × 10^-5
Protocol: Compounds of the invention were evaluated by an in vivo assay to determine compound activity as an inhibitors of platelet aggregation.
Healthy male or female dogs were fasted for 8 hours prior to drawing blood; then 30 mL whole blood was collected using a butterfly needle and 30 cc plastic syringe with 3 ml of 0.129M buffered sodium citrate (3.8%). The syringe was rotated carefully as blood was drawn to mix the citrate. Platelet-rich plasma (PRP) was prepared by centrifugation at 975×g for 3.17 minutes at room temperature, allowing the centrifuge to coast to a stop without braking. The PRP was removed from the blood with a plastic pipette and placed in a plastic capped, 50 ml Corning conical sterile centrifuge tube which was held at room temperature. Platelet poor plasma (PPP) was prepared by centrifuging the remaining blood at 2000×g for 15 minutes at room temperature allowing the centrifuge to coast to a stop without braking. The PRP was adjusted with PPP to a count of 2-3×10^8 platelets per ml. 400 μL of the PRP preparation and 50 μL of the compound to be tested or saline were preincubated for 1 minute at 37° C. in a BioData aggregometer (BioData, Horsham, Pa.). 50 μL of adenosine 5'diphosphate (ADP) (50 μm final concentration) was added to the cuvettes and the aggregation was monitored for 1 minute. All compounds are tested in duplicate. Results are calculated as follows:
Percent of control=[(maximal OD minus initial OD of compound) divided by (maximal OD minus initial OD of control saline)]×100. The % inhibition=100 - (percent of control).

[1] = Canis lupus familiaris, Platelet

Which IC50 [1] does the source give for `N=C(N)c1ccc(CCCCC(=O)NC2CC(=O)Oc3ccccc32)cc1` (racemic) [Example 2, (±)-4-(Aminoiminomethyl)-N-(3,4-dihydro-2-oxo-2H-1-benzopyran-4-yl) benzenepentanamide] here?
The IC50 was 2000 nM.

For `COc1ccc2c(c1)OC(=O)CC2NC(=O)CCCCc1ccc(C(=N)N)cc1` (racemic) [Example 3, (±)-4-(Aminoiminomethyl)-N-(3,4-dihydro-7-methoxy-2-oxo-2H-1-benzopyran-4-yl)benzenepentanamide], which IC50 [1] is on record?
The IC50 was 1100 nM.

What about the “% Inhibition” value of the same compound?
The value was 96%.

For `N=C(N)c1ccc(CCCCC(=O)N[C@H]2CC(=O)OC2c2nccs2)cc1` (single isomer, unassigned; diastereoisomer a) [Example 7, 4-(aminoiminomethyl)-N-[tetrahydro-5-oxo-2-(2-thiazolyl)-3S-furanyl]benzene pentanamide, bis(trifluoroacetate) (diastereoisomer A)], which IC50 is on record?
The IC50 was over 10000 nM.

Which IC50 does the source give for `N=C(N)c1ccc(CCCCC(=O)N[C@H]2CC(=O)OC2c2ccccc2)cc1` (single isomer, unassigned; diastereoisomer b) [Example 5, 4-(aminoiminomethyl)-N-(tetrahydro-5-oxo-2-phenyl-3S-furanyl)benzenepentanamide, trifluoroacetate (diastereoisomer B)] here?
The IC50 was 5100 nM.

How did the IC50 turn out when `N=C(N)c1ccc(CCCCC(=O)NC2CC(=O)OC2c2nccs2)cc1` (single isomer, unassigned; diastereoisomer b) [Example 8, 4-(aminoiminomethyl)-N-[tetrahydro-5-oxo-2-(2-thiazolyl)-3S-furanyl]benzene pentanamide, trifluoroacetate. (diastereoisomer B)] was run?
The IC50 was over 10000 nM.

For `N=C(N)c1ccc(CCCCC(=O)N[C@H]2CC(=O)OC2c2ccccc2)cc1` (single isomer, unassigned; diastereomer a) [Example 4], which IC50 is on record?
Its IC50 is 680 nM.

And the “% Inhibition” value?
Its value is 100%.

Which “% Inhibition” value does the source give for `N=C(N)c1ccc(CCCCC(=O)N[C@@H]2COC(=O)C2)cc1` [Example 1, 4-(Aminoiminomethyl)-N-(5-oxo-3S-furanyl)benzenepentanamide] here?
The value was 44%.
